Measured values from patent publication US9034859B2, “Sulfated oxysterol and oxysterol sulfation by hydroxysterol sulfotransferase promote lipid homeostasis and liver proliferation” (Virginia Commonwealth University, priority 2011, dated 2015).

Assays:
[1] = system: lipogenic gene expression; test: Relative hepatic mRNA expression by real-time RT-PCR, long-term treatment; type: in vivo, C57BL/6J female mice; conditions: liver, HFD mice
Procedure: Animal studies were approved by Institutional Animal Care and Use Committee of McGuire Veterans Affairs Medical Center and were conducted in accordance with the Declaration of Helsinki, the Guide for the Care and Use of Laboratory Animals, and all applicable regulations. To examine the effect of 25HC3S on diet-induced lipid accumulation in sera and liver, 8-week-old female C57BL/6J mice (Charles River, Wilmington, Mass.) were randomly assigned to three groups: the first control group was fed a chow diet; the high fat diet (HFD) group was fed a HFD (Harlan Teklad, Madison, Wis.) containing 42% kcal from fat, 43% kcal from carbohydrate, 15% kcal from protein and 0.2% cholesterol; and the high cholesterol diet (HCD) group was fed a 2% cholesterol diet with 18% kcal from fat, 58% kcal from carbohydrate and 24% kcal from protein for 10 weeks, respectively. All mice were housed under identical conditions in an aseptic facility and given free access to water and food. At the end of each period, the mice were intraperitoneally injected with vehicle solution (ethanol/PBS; Vehicle), 25HC (25 mg/kg), or 25HC3S (25 mg/kg) for 2 times and fasted over night for acute treatment (n=15-17 for each group) or once every three days for 6 weeks (n=16 for each group) and fasted 5 hrs for long-term treatment; and blood samples were collected. Serum triglyceride, total cholesterol, high density lipoprotein-cholesterol, glucose, alkaline phosphatase (ALK), alanine aminotransferase (ALT), and aspartate aminotransferase (AST) were measured using standard enzymatic techniques in the clinical laboratory at McGuire Veterans Affairs Medical Center. Lipoprotein profiles in sera were analyzed by HPLC as following described.
Total RNA was isolated with SV Total RNA Isolation Kit (Promega, Madison, Wis.), which included DNase treatment. Total RNA, 2 μg, was used for the first-strand cDNA synthesis as recommended by the manufacturer (Invitrogen, Carlsbad, Calif.). Real-time RT-PCR was performed using SYBR Green as indicator on ABI 7500 Fast Real-Time PCR System (Applied Biosystems, Foster City, Calif.). All primer/probe sets for real-time PCR were TaqMan gene expression assays (Applied Biosystems, Foster City, Calif.). Amplifications of β-actin and GAPDH were used as internal controls. Relative messenger RNA (mRNA) expression was quantified with the comparative cycle threshold (Ct) method and was expressed as 2^−ΔΔCt. Suitable primers were utilized.

[2] = Pharmacokinetics and tissue biodistribution of radioactivity after i.v. injection; type: in vivo, C57BL/6 mice
Procedure: In a separate set of experiments, mice received an i.v. injection of [^3H]-25HC3S (1×10^6 cpm/mouse) and 25HC3S (5 mg/kg). At 4, 24, 48, and 96 h after the injection, mice were sacrificed, tissues (brain, heart, lung, liver, kidney, spleen, stomach, small intestine, skeletal muscle, and colon) were rapidly dissected and weighed, and the radioactivity was measured using a liquid scintillation counter with automatic decay correction (Beckman Counter, Atlanta, Ga.). Tissue values were calculated as a percentage of injected counts per gram of tissue (% IC/g). For pharmacokinetics, blood samples (30 μl) were collected at selected times after injection from 0 to 96 h via tail clip. Counts of radioactivity were expressed as IC/ml of blood.

PCNA = PCNA labeling index in liver histology; type: in vivo, C57BL/6 mice; conditions: liver specimen of 25HC3S treated mice (5 mg/kg, 48 h)
Procedure: Metabolism. (Accepted)]. […] Antigen retrieval was performed by microwaving of the sections in citrate buffer (PH 6.0) for 10 min. Sections were incubated overnight at […] with the primary monoclonal antibody against proliferating cell nuclear antigen (PCNA) (ab29, Abcam, Cambridge, Mass.). After washing with PBS, immobilized antibodies were detected by the avidin-biotin-peroxidase complex technique (Vectastain@ ABC Kit, Vector Laboratories, Burlingame, Calif.). DAB (Vector Laboratories, Burlingame, Calif.) and haematoxylin (Sigma-Aldrich, St. Louis, Mo.) was used as the chromogen and nuclear counterstain, respectively. […] The quantitation of PCNA expression was expressed as the PCNA labeling index.

[3] = system: primary rat hepatocytes (PRH); test: Western blot in primary rat hepatocytes (Example 4); type: cell-based; conditions: Ad-Control-infected group, T0901317 1.5 μM or 25HC 3 μM
Procedure: PRH were prepared as previously described (24). Briefly, parenchymal cells (3.5×10^6) were inoculated in 60-mm plastic Petri dishes coated with rat tail collagen. The plates contained 3 ml of Williams E culture media supplemented with thyroxine (1 μM), dexamethasone (0.1 μM), and penicillin (100 units/ml). Three hours after plating, culture medium was removed and fresh medium was added. Cells were then infected with Ad-SULT2B1b at a multiplicity (MOI) of 10 plaque forming units/cell (pfu/cell) or 100 nM of siRNA-SULT2B1b (ON-TARGET plus siRNA of rat SULT2B1b, Thermo Scientific Dharmacon, Lafayette, Colo.) as previously described (31). The Ad-Control and siRNA-Control (ON-TARGET plus negative control siRNA) were used as controls, respectively. Twenty four hours after infection, cells were treated with T0901317 (1.5 μM) or 25HC (3 μM) for another 24 hours. The cells were harvested at the timepoints as indicated in the text.
Cell lysates were prepared from frozen mouse liver tissues or PRH, and 50 μg of the total proteins were separated by 10% SDS-PAGE, transferred to polyvinylidene difluoride membrane (Millipore, Eschbom, Germany). Specific protein was probed with specific antibodies against PCNA, human SULT2B1b (Santa Cruz Biotechnology, Santa Cruz, Calif.), LXRα (Abcam, Cambridge, Mass.), ATP-binding cassette transporters 1 (ABCA1) (Abcam, Cambridge, Mass.), and SREBP1 (Santa Cruz Biotechnology, Santa Cruz, Calif.). β-Actin (Sigma-Aldrich, St. Louis, Mo.) was used as a loading control. Western analysis was performed by methods known in the art.

[4] = once every three days for 6 weeks, mean ± SD, n=5-6
[5] = i.v. [3H]-25HC3S and 25HC3S 5 mg/kg

Structure (SMILES): CC(CCCC(C)(C)O)C1CCC2C3CC=C4CC(OS(=O)(=O)O)CCC4(C)C3CCC12C (stereo not drawn) [25HC3S, 25-hydroxycholesterol-3-sulfate]
- decrease of ACC1 mRNA level ([1]; long-term treatment): 41%
- decrease of CD36 mRNA ([1]; long-term treatment): 49%
- decrease of FAS mRNA level ([1]; long-term treatment): 24%
- decrease of GPAM mRNA ([1]; long-term treatment): 19%
- decrease of SREBP-1c mRNA level ([1]; long-term treatment): 23%
- suppression of IL1α expression ([1]; long-term treatment): 53%
- suppression of IL1β expression ([1]; long-term treatment): 58%
- suppression of TNFα expression ([1]; long-term treatment): 47%
- ABCA1 relative hepatic mRNA [1, 4]: 0.80 ± 0.12
- ABCG1 relative hepatic mRNA [1, 4]: 0.72 ± 0.19
- ACC1 relative hepatic mRNA [1, 4]: 0.63 ± 0.08
- CD36 relative hepatic mRNA [1, 4]: 0.47 ± 0.08
- FAS relative hepatic mRNA [1, 4]: 0.73 ± 0.16
- GPAM relative hepatic mRNA [1, 4]: 0.81 ± 0.10
- IL1α relative hepatic mRNA [1, 4]: 0.54 ± 0.14
- IL1β relative hepatic mRNA [1, 4]: 0.58 ± 0.27
- IκBα relative hepatic mRNA [1, 4]: 1.48 ± 0.38
- LDLR relative hepatic mRNA [1, 4]: 0.79 ± 0.13
- LXRα relative hepatic mRNA [1, 4]: 0.95 ± 0.24
- MTTP relative hepatic mRNA [1, 4]: 0.78 ± 0.09
- NFκB relative hepatic mRNA [1, 4]: 0.86 ± 0.22
- PLTP relative hepatic mRNA [1, 4]: 0.60 ± 0.11
- SRB1 relative hepatic mRNA [1, 4]: 0.87 ± 0.20
- SREBP-1c relative hepatic mRNA [1, 4]: 0.76 ± 0.08
- TNFα relative hepatic mRNA [1, 4]: 0.60 ± 0.34
- maximum level of 3H-radioactivity in blood ([2]; i.v. [3H]-25HC3S (1×10^6 cpm/mouse) and 25HC3S 5 mg/kg): 7 % IC/g
- time at which blood 3H-radioactivity decreased to the half level [2, 5]: 48 h
- time of maximum 3H-radioactivity in blood [2, 5]: 1 h
- clearance ([2]; i.v., blood radioactivity): slow clearance
- time of highest uptake of 3H-radioactivity in most organs ([2]; i.v., measured at 4, 24, 48 and 96 h): 4 h
- PCNA labeling index (PCNA): 12%

Structure (SMILES): C[C@H](CCCC(C)(C)O)[C@H]1CC[C@H]2[C@@H]3CC=C4C[C@@H](O)CC[C@]4(C)[C@H]3CC[C@]12C [25HC, 25-hydroxycholesterol]
- LXR response gene expressions [3]: significantly increased
- PCNA expression [3]: decreased
